In patent US11459293B2, “Compositions and methods of making expanded hematopoietic stem cells using derivatives of fluorene” (ImmuneBridge Inc., priority 2017, dated 2022):

How the values were obtained:
[1] = tested on: hematopoietic stem cells derived from cord blood; assay: Enhancement of hematopoietic stem cells from cord blood cultured with Compound 1.008, flow cytometry up to 19 days (Example 34); format: cell-based
Description: A frozen cord blood sample was thawed and gradually brought to room temperature. Thawed cord blood was incubated in an in vitro culture media of Alpha MEM without phenol red, 10% (v/v) heat inactivated fetal bovine serum (FBS). Four samples were tested: Base conditions, +SF Conditions, +1.008 Conditions, and +1.008/+ER conditions. The components included in each condition is described in Table 4. Each condition tested also included an antibiotic solution that includes penicillin, streptomycin, and amphotericin B to avoid contamination.
(§1) Cultures were incubated at 3% oxygen (controlled by nitrogen) and 5% CO2.
Small molecule components were added separately and fresh each time the media needs to be refreshed. Cytokines can be stored together. Media renewal should occur at least every few days.
On the days indicated varying amounts of the cell culture was removed for data analysis (flow cytometry using a BD FACS ARIA II) and to avoid overcrowding of cells. The culture volume was replenished with fresh media according to the conditions tested. The data reported accounts for the dilution factor introduced in this procedure.

[2] = tested on: CD34+ cells isolated from donor peripheral blood (non-mobilized); assay: Enhancement of hematopoietic stem cells from non-mobilized peripheral blood, flow cytometry, fold change days 2 to 7 (Example 33); format: cell-based; settings: 8 μM sample compound, normalized fold change days 2 to 7, 3% oxygen
Description: CD34+ cells were isolated from donor peripheral blood. Standard buffy coat separation using ficoll paque was performed. Cells were pelleted and incubated with unlabeled CD64 antibody. Cells then underwent negative depletion using biotinylated CD2, CD3, CD4, CD5, CD8, CD11b, CD14, CD16, CD19, CD20, CD45RA, CD56, CD235 (in some examples CD15, CD25 and other lineage specific antibodies may also be used). Cells which bind these antibodies are depleted using streptavidin beads. The enriched progenitor pool then undergoes cell sorting for CD34+.
Isolated CD34+ cells were incubated in an in vitro culture media of Alpha MEM without phenol red with 10% (v/v) heat inactivated fetal bovine serum (FBS). When testing compounds of Formula I, two internal controls were used: a positive control (+SF conditions) and a baseline control (i.e. basic conditions (“cytokines only”)). The media components and concentrations used for the compounds tested are described in Table 2. The culture also included an antibiotic solution that includes penicillin, streptomycin, and amphotericin B to avoid contamination. Controls were included because the amount of expansion in samples obtained varies from individual to individual. […]
Table 3, below, summarizes the relative expansive effect of Compound 1.001 to 1.023 (sample compounds) at the indicated concentration. […] It is calculated as shown below: […]

[3] = tested on: CD34+ cells from non-mobilized peripheral blood; assay: Long-term (21 days) expansion with Compound 1.010, non-mobilized peripheral blood (Example 36); format: cell-based, human; settings: Compound 1.010 8 μM
Description: CD34+ cells from non-mobilized peripheral blood were purchased from STEMCELL Technologies. Primary human CD34+ cells were isolated from blood samples using positive immunomagnetic separation techniques.
Cryspreserved CD34+ cell samples from each source were thawed and gradually brought to room temperature. Samples were washed then placed in overnight culture in StemSpan with 100 ng/ml each of FLT3L, TPO, SCF, and IL-6.
as §1
Twenty-four hours later (day 1), cells were counted and immunophenotyped (flow cytometry on an Invitrogen Attune NxT cytometer). […] Exact cell numbers dispensed per condition were quantified for later calculations of fold change from day 1.
Wells were analyzed at days 7 and 10, flasks were analyzed at 14 and 21 days of incubation. Cell numbers and phenotypes were quantified with flow cytometry. […] An additional seven days later (day 21 of culture), cell numbers and phenotypes were again quantified with flow cytometry. Cell numbers calculated at day 21 account for the passaging of the cells.
Conditions in 96-well plates were prepared in quadruplicate; conditions in flasks were prepared in duplicate. On the above-indicated number of days in culture, cells from wells or flasks were collected and phenotypes were analyzed (flow cytometry on an Invitrogen Attune NxT cytometer).

## CC(C)(C)C(=O)Nc1ccc2c(c1)C(=O)c1cc(N)ccc1-2 [Compound 1.008, N-(7-amino-9-oxo-9H-fluoren-2-yl)pivalamide]
[1]; +1.008 Conditions (250 nM), 19 days in culture
  maintenance and expansion of hematopoietic stem cells in culture: maintained and continue to expand
[1]; FIG. 24B-E, versus Base and +SF conditions
  total number of CD34+, CD34+/CD133+, CD34+/CD133+/CD90+ and CD34+/CD133+/CD90+/CD38 low/− cells (flow cytometric cell counts): increase
[1]; after 19 days in culture, Compound 1.008 250 nM, 3% oxygen, FIG. 25B
  increase in CD34+ cells from day 2: greater than 50 fold
[1]; after 19 days in culture, Compound 1.008 250 nM, 3% oxygen, FIG. 25C
  increase in CD34+/CD133+ cells from day 2: greater than 50 fold
[1]; after 19 days in culture, Compound 1.008 250 nM, 3% oxygen, FIG. 25D
  increase in CD34+/CD133+/CD90+ cells from day 2: ~20 fold
[1]; after 19 days in culture, Compound 1.008 250 nM, 3% oxygen, FIG. 25E
  increase in CD34+/CD133+/CD90+/CD38low/− cells from day 2: > 12 fold

## CC(C)(C)C(=O)Nc1ccc2c(c1)C(=O)CC2 [Compound 1.019]
[2]
  CD90 effect (relative expansive effect on CD34+/CD133+/CD90+ cells): ++ (0.2 ≤ x < 0.55)
  CD133 effect (relative expansive effect on CD34+/CD133+ cells): ++ (0.2 ≤ x < 0.55)

## CC(C)(C)C(=O)Nc1ccc2c(c1)C(O)c1ccccc1-2 (centres unmarked) [Compound 1.010]
[3]; fold change from day 1, up to 21 days in culture, 3% oxygen, FIG. 54B
  expansion of CD34+ cells: greater than nine-fold
[3]; up to 21 days
  expansion compared with cytokines alone: far surpasses

## ER50891 [reference compound]
[1]; ER50891 100 nM with Compound 1.008 250 nM, 19 days
  fold increase levels on addition of ER50891 to +1.008 conditions: even further improved
